Here are results for one compound from patent US20110045032A1 (priority 2001, published 2011).

The structures appear in SMILES notation. Entries after “also recorded” stand apart in the source; their conditions may differ. Bounds are passed on as bounds.

Common to all, as to assay type: in vivo
The subject of series [1] is dust mite-sensitized rabbits. The experiment in a line: Lung histology (Example 26). To be noted: blinded veterinary pathologist, scale of 0 to 4; vs vehicle control. Here is the method: This study defines the effect of 7 days of treatment with DHEA-S on allergen-induced bronchial hyperresponsiveness (BHR), early and late phase responses, and pulmonary inflammation in dust mite-sensitized rabbits. Baseline BHR and inflammation were first determined. DHEA-S (5 mg/ml, 2 ml nebulized) or an equivalent volume of vehicle was delivered once per day via nebulization through a pediatric facemask covering the nose and mouth on days 1 through 7. On day 8, 24 hours after the last treatment, allergen challenge, pulmonary function testing and BALF were performed. On day 9, 24 hours after allergen challenge a histamine challenge was performed and the lungs removed for histology. The study includes 5 animals studied under a crossover design. […]
Effects on interstitial inflammation were evaluated by histology. A veterinary pathologist evaluated hematoxylin and eosin stained sections in a blinded manner. Sections were scored for inflammatory parameters using a scale of 0 to 4 with 0 representing no finding and 4 representing severe. […] All of the following parameters were scored lower in the DHEA-S treated lungs compared to the vehicle control group: cuffing of the airways and blood vessels by inflammatory cells, bronchial-associated lymphoid tissue hyperplasia, and bronchitis/bronchiolitis. […]

Series [2] is described as follows: Acute inhalation toxicity in rats. The note with it: rat, in vivo, inhaled; preclinical toxicology studies; not achieved at this dose; read-out: maximum tolerated dose. Here is the method: (§1) Other findings were minor in nature and detailed in the reports that follow. Therefore, nebulization of an aqueous solution was determined to be feasible but not practical due to the inability to achieve a sufficient safety factor to support clinical trials.

For another series, the system named is rats. Nature of the series: Acute inhalation toxicity in rats. To be noted: inhalation. Here is the method: as §1

Turning to `CC12CCC3C(CC=C4CC(OS(=O)(=O)[O-])CCC43C)C1CCC2=O.[Na+]` (stereo not shown) [DHEA-S, Dehydroepiandrosterone sulfate], in series [1], the “histological evaluation of airway inflammation” value is “reduced inflammatory cell cuffing of the vessels and bronchi, bronchus-associated lymphoid tissue hyperplasia, and epithelial sloughing; also recorded: scored lower”. Moreover, the MTD in series [2] was more than 11 mg/kg/day. Also, the maximum tolerated dose result in the series on rats is given as “could not be achieved”. Further, in the series on rats (up to the maximum feasible dose), the “adverse effects to the respiratory tract” value is given as “did not produce any adverse affects”.
